Measurements published in patent US9090701B2, “Methods of detecting oxidized calcium/calmodulin dependent protein kinase II” (University of Iowa Research Foundation, priority 2008, dated 2015).

How the values were obtained:
[1] = test system: oxidized CaMKII; test: Oxidized / phosphorylated CaMKII in hearts of treated mice (immunostaining, immunoblot); format: in vivo
Protocol: (§1) Mice were anesthetized with ketamine (87.5 mg/kg) and xylazine (12.5 mg/kg), and a small incision was made in the skin near the spine, approximately 1 cm above the hip. Minipumps containing saline or AngII (3 mg/kg/day) were inserted and the skin was sutured closed. Other mice were given, daily injections of Iso (30 mg/kg/day, intraperitoneal) for 7 days. Animals were then sacrificed and the heart was removed, fixed, and embedded in paraffin. Transverse heart sections of 5 μm thickness were made. To confirm the identity of cardiomyocytes, heart sections were immunolabeled with alpha-actinin Ig (cardiomyocyte-specific marker). Only sections with >90% cardiomyocytes were used in experiments. (See FIG. 13.) Paraffin was removed, and TUNEL staining was performed using In Situ cell death detection kits, TMR Red (Roche). Nuclei were co-stained with DAPI. To determine percent of TUNEL positive nuclei, whole heart sections were divided into four quadrants and one image was taken at random within each quadrant. In the case of sections from post-MI mice, an average of 50% of the heart quadrants were from portions of the heart adjacent to the MI. An investigator blinded to the identity and treatment of the mice counted the number of total and TUNEL positive cells in each image.
Other sections were treated with either a general CaMKII antibody or oxidized CaMKII antiserum. Nuclei were co-stained with DAPI. Identity of cardiomyocytes was confirmed by co-stain with an antibody against α-actinin. Images were quantified for relative staining intensity using Image J (NIH, USA). Each image was divided into four quadrants, and one rectangular area of equal size and shape was randomly placed within the cytosolic area of each quadrant, excluding DAPI-stained nuclei. Relative intensity of an image was judged to be the mean of the intensity measurements taken in each quadrant. Both the investigators and technical personnel assigned to immunostaining and quantification were blinded to the genetic identity and treatment of the mice in all studies.
To determine the role of CaMKII oxidation In apoptosis, mice were treated with saline, AngII, or isoproterenol (Iso) for one week, and transverse heart, sections from these mice were probed for the production of oxidized CaMKII in vivo. […] Total CaMKII immunoreactivity remained constant regardless of treatment. […] (See FIG. 6).
Homogenized hearts from mice treated with saline, AngII, or Iso, and whole heart lysates were analyzed by immunoblot for oxidized CaMKII.
Methionine oxidation is specifically reversed by MsrA (Weissbach e.g., 2002), so it was hypothesized that MsrA^−/− mice would show enhanced vulnerability to AngII-mediated CaMKII oxidation and apoptosis. In order to test this idea, MsrA^−/− and WT control mice were implanted with AngII or saline elating osmotic mini pumps. […] In order to test if CaMKII oxidation and apoptosis were regulated by NADPH oxidase and MsrA in the setting of myocardial infarction, MsrA^−/−, p47^−/−, and WT mice were subjected to myocardial infarction surgery. […] Myocardial infarction surgery was performed on a larger cohort of MsrA^−/− and WT control mice to determine if increased CaMKII oxidation and apoptosis in MsrA^−/− mice translated into poorer functional outcomes.
To test the specificity of this antiserum, Western blots of isolated CaMKII after no treatment, oxidation with H2O2, or phosphorylation with ATP were performed. CaMKII samples were probed for either total protein using a general CaMKII antibody or for oxidized CaMKII with anti-oxCaMKII antiserum. […] (See FIG. 14A). To test the efficacy of the antiserum in tissue staining, mice were treated with either saline or angiotensin II, an oxidant stimulating agent in cardiac tissue, and stained heart sections and performed immunofluorescent stains for oxidized CaMKII. […] (See FIG. 14B).

[2] = test system: cardiomyocytes; test: ROS detection with DHE in cardiomyocytes; format: cell-based, mouse; conditions: 100 nM
Protocol: Changes in ROS levels in cultured primary cardiac myocytes after agonist stimulation were measured using the fluorogenic probe dihydroethidium (DHE, 5 μM, Molecular Probes), as previously described (Zimmerman e.g., 2004). DHE fluorescent images were acquired using confocal microscopy (Zeiss LSM510).
(§2) In order to validate the connection between AngII and ROS in this experimental model, isolated cardiomyocytes from WT and p47^−/− mice were treated with 100 nM AngII and monitored production of ROS by Imaging DHE, a fluorescent reporter for superoxide and hydrogen peroxide (FIG. 7C). Wild-type cardiomyocytes were incubated with fura-2 AM, a cell-permeant calcium indicator to observe changes in intracellular Ca^2+ ([Ca^2+]i).

[3] = test system: cardiomyocytes; test: Intracellular calcium concentration (Fura-2 imaging); format: cell-based, mouse; conditions: compared to Iso, cardiomyocytes from WT and p47−/− mice, 100 nM
Protocol: Intracellular calcium concentration was assessed by Fura-2 fluorescence ratio imaging using a microscopic digital imaging system (Photon Technology International), as described previously (Sharma e.g., 1995). Briefly, cultured primary cardiac myocytes were loaded with the Ca^2+-specific dye Fura-2 by incubating with 1 μM Fura-2AM (Molecular Probes) at 37° C. for 30 minutes. [Ca^2+]t values over the entire cell were calculated from the 340/380-nm ratio images of Fura-2 fluorescence captured before, during and after Iso (100 nM) or AngII (100 nM) stimulation.
as §2

[4] = test system: heart; design: species or system mice; conditions: mouse, in vivo
Protocol: as §1, with “image. […]” for “image.”

[5] = test system: oxCaMKII; test: Western blot of blood samples for oxidized CaMKII; format: in vivo, mice; conditions: WT and MsrA−/− mice, sacrificed 6 hours later, N=1 per group
Description: In order to test whether the anti-oxCaMKII antiserum was suitable for detecting increased CaMKII oxidation in blood under disease conditions associated with enhanced oxidative stress, validated mouse models were utilized. […] (See FIG. 15). Western blot of blood samples and ImageJ analysis were used to quantify total and oxidized CaMKII. (See FIG. 15). […] Mice were exposed to cancer cells and treated with either saline or 2DG. Those mice that tailed to develop tumors after 60 days were labeled as controls. (See FIG. 16). Western blot of blood samples and ImageJ analysis were used to quantify total and oxidized CaMKII. (See FIG. 16). […] (See FIG. 16). Mice were divided into four groups based on the presence or absence of cancer and whether or not they received treatment. Western blot of blood samples and ImageJ analysis were used to quantify total and oxidized CaMKII. (See FIG. 18). Both cancer and varied treatments increase blood oxCaMKII in an additive manner.

In the case of “angiotensin II (DRVYIHPF; Angiotensin-2; UniProt P01019 25-32, looked up) [AngII, oxidant stimulating agent in cardiac tissue]”, the “CaMKII oxidation in hearts” value ([1]; MsrA−/− mice, vs saline MsrA−/− and control hearts) is reported as “significantly more CaMKII oxidation”, the “Oxidized CaMKII in heart sections” value ([1]; WT mice) is reported as “more oxidized CaMKII than those treated with saline or Iso” and the “Staining for T287-phosphorylated CaMKII in heart sections” value ([1]; WT mice, AngII 3 mg/kg/day 1 week) is reported as “increased staining”. The “Oxidized CaMKII in heart sections” value ([1]; WT mice, listed as angiotensin II) was “significant staining relative to the control”, the “Oxidized CaMKII in heart sections” value ([1]; p47−/− mice) was “did not show increased levels of oxidized CaMKII” and the “Staining for T287-phosphorylated CaMKII in heart sections” value ([1]; p47−/− mice) was “unaffected”. For the same substance, the “Oxidized CaMKII in whole heart lysates (immunoblot)” value ([1]; vs saline or Iso) was “significantly increased oxidized CaMKII levels”, the ROS production ([2]; WT cardiomyocytes) was “significant increase in ROS production” and the “ROS production (significant increase)” value ([2]; p47−/− cardiomyocytes) was “not”. The “Increases in [Ca2+]i” value [3] was “significantly less”, the “TUNEL staining of hearts” value [4] was “increased TUNEL staining” and the “Oxidized CaMKII in blood” value [5] was “increased oxidized CaMKII”.
